Assays:
[1] = parameters: method as in 2 sources, one per row (each row's own in cited_ref): ref 14 = [14]; PMID 23386784; doi:10.2147/BTT.S24580; 14 Nooka A , Gleason C , Casbourne D , Lonial S . Relapsed and refractory lymphoid neoplasms and multiple myeloma with a focus on carfilzomib . Biologics 2013; 7 : 13 – 32 . 10.2147/BTT.S24580 233867 ||| ref 6 = [6]; PMID 21752943; doi:10.1124/dmd.111.039164; 6 Yang J , Wang Z , Fang Y , Jiang J , Zhao F , Wong H , et al Pharmacokinetics, pharmacodynamics, metabolism, distribution, and excretion of carfilzomib in rats . Drug Metab Dispos . 2011; 39 : 1873; details: cited from earlier work
[2] = target: T1, proteasome catalytic subunit β5 (Homo sapiens, UniProt P20618+P28074); assay: Immunoblot mobility shift of covalently modified β5 in tumor lysates; parameters: species or system human (H460 xenograft in mice); details: positive control: tumor lysates incubated with 50 nM CFZ for 2 h in vitro
T1 construct: tumor tissue lysates (10 μg of total protein) were resolved using 12.5% SDS-PAGE; from tissue; host or cells: excised H460 xenograft tumour tissue from NOD/SCID mice
Experimental: Briefly, tumor tissue lysates (10 μg of total protein) were resolved using 12.5% SDS-PAGE and transferred onto a PVDF membrane (Bio-Rad Laboratories). Membranes were blocked in 5% milk in Tris-buffered saline containing 0.05% Tween-20 (TBST) and probed with the following antibodies; for β5 (dilution 1:1000, Abcam) and β-actin (dilution 1:1000, Cell Signaling). Membranes were washed with TBST and probed with the corresponding secondary antibodies conjugated with horseradish peroxidase. Bound antibodies were visualized using an enhanced chemiluminescence substrate (Thermo Fisher Scientific).

Carfilzomib [CFZ]
solubility in aqueous media ([1]; background statement, no reference given): practically insoluble
share of CFZ eliminated from systemic circulation within 30 min ([1]; following intravenous injection, peptide backbone cleavage and epoxide hydrolysis): > 95%
maximum tolerated dose ([1]; mice): 5 mg/kg
β5 band mobility compared with negative control (DMSO) [2]: showed a mobility shift

Reference: paper PMC5342227, “Polymer micelle formulation for the proteasome inhibitor drug carfilzomib: Anticancer efficacy and pharmacokinetic studies in mice” (PLoS ONE, 2017)
